Here are results for 29 compounds from patent US5245034A, “Compound having vessel smooth muscle relaxation activity” (Hidaka; Kiroyoshi, priority 1988, dated 1993).

In assay [1] the test system is superior mesenteric artery (contracted by potassium chloride). Briefly: Vessel Smooth Muscle Relaxation Action (V.R.). It counts as cell-based, rabbit. The settings on record: Oryctolagus cuniculus; concentration relaxing KCl-contracted strain to 50%; cumulative administration; read-out: V.R. (ED50). From the text: The specimen was suspended by loading a strain in Krebs-Henseleit solution through which an oxygen gas containing 5% carbon dioxide was bubbled. The specimen was contracted by adding potassium chloride to maintain a predetermined strain. Thereafter, a test compound was cumulatively administrated.

Assay [2] concerns the target Calmodulin-Dependent Phosphodiesterase (Ca^2+ PDE). Nature of the assay: Calmodulin-Dependent Phosphodiesterase Inhibition (Ca^2+ PDE). The assay is classed as biochemical, rat. Particulars: [^3 H]-cGMP, 30° C. The procedure:
Phosphodiesterase (Ca^2+ PDE)Ca^2+ PDE was partially purified from the brain of rat by DEAE-Sepharose column chromatography.
Calmodulin was purified from the calf brain using a calmodulin inhibitor W-7 affinity column.
A reaction mixture contained 20 μl of 500 mM Tris-HCl (pH 8.0), 20 μl of 50 mM MgCl2, 20 μl of 2 mM CaCl2 (or 10 mM EGTA), 20 μl of 1 mg/ml bovine serum albumin, PDE, […] of calmodulin, test sample and distilled water to make total volume 200 μl. To the mixture was added 20 μl of 4 μM [^3 H]-cGMP (2.5 μCi/ml), the mixture was incubated at 30° C. for 15 minutes, and then heated in boiling water for 3 to 5 minutes to terminate the reaction, and cooled in ice-water bath. 20 μg of 5'-nucleotidase (Snake venum) was added to the mixture, and the mixture was again incubated at 30° C. for 10 minutes. After addition of about 2 ml of water, the sample was applied to a cation exchange resin column (Biorad AG.AG50W-X4 to adsorbe the [^3 H]-guanosine and additionally about 2 ml of washing water for the sample was added to the column. The column was washed with about 20 ml of water, and the adsorbed [^3 H]-guanosine was eluted with 3 ml of 3N NH4 OH, and the elute was directly received by a vial. After an addition of 10 ml of an emulsified scintillation solution (ACS-II, AMERSHAM) the radio activity was measured by a scintillation counter LS7500 (Beckmann). The enzyme activity in the presence of calmodulin was taken as […], and a concentration of a test compound in μM which provides a 50% inhibition was expressed as IC50.

SMILES strings stand for the structures.

By IC50 is commonly meant the concentration that inhibits the measured activity by half. A lower IC50 goes with higher potency. Take `CN(C(Cc1ccc(NS(C)(=O)=O)cc1)C(=O)N1CCN(c2ccccc2)CC1)S(=O)(=O)c1cccc2cnccc12` (stereo not shown) [Example 19, 1-[N-(5-Isoquinolinesulfonyl)-P-Methanesulfonylamino-N-Methylphenylalanyl]-4-Phenylpiperazine]: the EC50 in assay [1] worked out at 22 µM. This compound yielded an IC50 in assay [2] of 20 µM. For the compound `O=C([C@H](Cc1ccc(O)cc1)NS(=O)(=O)c1cccc2cnccc12)N1CCN(c2ccccc2)CC1` [Example 111, 1-[N-(5-isoquinolinesulfonyl)tyrosyl]-4-phenylpiperazine], the EC50 in assay [1] worked out at 7 µM. This compound also registered an IC50 in assay [2] of 77 µM. For `CN(C(Cc1ccc(O)cc1)CN1CCCN(c2ccccc2)CC1)S(=O)(=O)c1cccc2cnccc12` (stereo not shown) [Example 83, N-[1-(P-Hydroxybenzyl)-2-(4-Phenylhomopiperazinyl)Ethyl]-N-Methyl-5-Isoquinolinesulfonamide] the same measures were 0.39 µM and 24 µM.

For `O=C([C@H](Cc1ccc(OS(=O)(=O)c2cccc3cnccc23)cc1)NS(=O)(=O)c1cccc2cnccc12)N1CCN(c2ccccc2)CC1` [Example 108, 1-[N,O-Bis(5-Isoquinolinesulfonyl)Tyrosyl]-4-Phenylpiperazine], the EC50 in assay [1] is 1.2 µM. Also, in assay [2], 10 µM corresponded to half-maximal inhibition (IC50). Regarding `CN(C(Cc1ccc(O)cc1)CN1CCC(c2ccccc2)CC1)S(=O)(=O)c1cccc2cnccc12` (stereo not shown) [Example 93, N-[1-(p-hydroxybenzyl)-2-(4-phenylpiperidino)ethyl]-N-methyl-5-isoquinolinesulfonamide], the EC50 in assay [1] is 0.31 µM. Moreover, the IC50 in assay [2] was 3.4 µM. Take `Cc1ccc(COC2CCN(CC(Cc3ccc(O)cc3)NS(=O)(=O)c3cccc4cnccc34)CC2)cc1` (stereo not shown) [Example 85, N-{1-(P-Hydroxybenzyl)-2-{4-(P-Methylbenzyloxy)Piperidino]Ethyl}-Isoquinolinesulfonamide]: the IC50 in assay [2] came to 75 µM. For `O=S(=O)(NCCNCC#Cc1ccc(Cl)cc1)c1cccc2cnccc12` [Example 189-I, N-{2-[3-(4-Chlorophenyl)-2-Propynylamino]Ethyl}-5-Isoquinolinesulfonamide], the EC50 in assay [1] stood at 0.22 µM. This compound yielded an IC50 in assay [2] of 2.7 µM. Compound `CN(C(Cc1ccc(OS(=O)(=O)c2cccc3cnccc23)cc1)CN1CCC(c2ccccc2)CC1)S(=O)(=O)c1cccc2cnccc12` (stereo not shown) [Example 92, N-{1-[p-(5-isoquinolinesulfonyloxy)benzyl]-2-(4-phenylpiperidino)ethyl}-N-methyl-5-isoquinolinesulfonamide] came in with an IC50 in assay [2] of 63 µM. The same measure, in the same setting: to `O=S(=O)(NCCN(CC=Cc1ccc(Cl)cc1)Cc1ccc(O)cc1)c1cccc2cnccc12` [Example 194, N-{2-[4-Chloro-N-(4-Hydroxybenzyl)Cinnamylamino]ethyl}-5-Isoquinolinesulfonamide] belongs 80 µM. Regarding `O=S(=O)(NC(Cc1ccc(OS(=O)(=O)c2cccc3cnccc23)cc1)CN1CCCN(c2ccccc2)CC1)c1cccc2cnccc12` (stereo not shown) [Example 80], in assay [1], the EC50 worked out at 2.4 µM. It took 13 µM to reach half-maximal inhibition in assay [2] (IC50). As to `CCN(CC=Cc1ccc(Cl)cc1)CCN(CC)S(=O)(=O)c1cccc2cnccc12` [Example 192, N-Ethyl-N-[2-(4-Chloro-N-Ethylcinnamylamino)Ethyl]-5-Isoquinolinesulfonamide], the EC50 in assay [1] worked out at 0.12 µM. In assay [2], this compound showed an IC50 of 84 µM. Turning to `Cc1ccc(S(=O)(=O)Nc2ccc(CC(NS(=O)(=O)c3cccc4cnccc34)C(=O)N3CCN(c4ccccc4)CC3)cc2)cc1` (stereo not shown) [Example 15, 1-[N-(5-Isoquinolinesulfonyl)-P-(P-Toluenesulfonylamino)Phenylalanyl]-4-Phenylpiperazine], inhibition in assay [2] was half-maximal at 43 µM (IC50). Regarding `O=CN(CC=Cc1ccc(Cl)cc1)CCNS(=O)(=O)c1cccc2cnccc12` [Example 193, N-[2-(4-Chloro-N-Formylcinnamylamino)ethyl]-5-Isoquinolinesulfonamide], in assay [1], the EC50 is 3.2 µM. In assay [2], the IC50 came out at 12 µM. On the same counts, the results for `CN(C(Cc1ccc(O)cc1)CN1CCC(OCc2ccc(Cl)c(Cl)c2)CC1)S(=O)(=O)c1cccc2cnccc12` (stereo not shown) [Example 90, N-{2-[4-(3,4-Dichlorobenzyloxy)Piperidino]-1-(P-Hydroxybenzyl)Ethyl}-N-Methyl-5-Isoquinolinesulfonamide] are 0.33 µM and 3.4 µM. On to `O=S(=O)(c1cccc2cnccc12)N(CC#Cc1ccc(Cl)cc1)CCNCC#Cc1ccc(Cl)cc1` [Example 189-III], for which the EC50 in assay [1] came to 0.29 µM. In assay [2], the half-inhibitory concentration (IC50) is 1 µM. In the case of `CN(c1ccc(CC(C(=O)N2CCN(c3ccccc3)CC2)N(C)S(=O)(=O)c2cccc3cnccc23)cc1)S(=O)(=O)c1cccc2ccccc12` (stereo not shown) [Example 25, 1-{N-(5-isoquinolinesulfonyl)-N-methyl-p-[N'-methyl-N'-(1-naphtharenesulfonyl)amino]phenylalanyl}-4-phenylpiperazine], the EC50 in assay [1] came to 0.55 µM. In assay [2], the IC50 was 70 µM. In the case of `O=S(=O)(NCCNCC=CC=Cc1ccc(C(F)(F)F)cc1)c1cccc2cnccc12` [Example 180, N-{2-[5-(4-Trifluoromethylphenyl)-2,4-Pentadienylamino]Ethyl}-5-Isoquinolinesulfonamide], the EC50 in assay [1] is 1.8 µM. Also, in assay [2], half-maximal inhibition (IC50) was put at 4.8 µM. On the same counts, the results for `O=S(=O)(NC(Cc1ccc(OS(=O)(=O)c2cccc3cnccc23)cc1)CN1CCC(OCc2ccc(Cl)c(Cl)c2)CC1)c1cccc2cnccc12` (stereo not shown) [Example 86] are 13 µM and 24 µM. As to `O=S(=O)(c1cccc2cnccc12)N(Cc1ccc(Cl)c(Cl)c1)C(Cc1ccc(O)cc1)CN1CCC(O)CC1` (stereo not shown) [Example 105, N-3,4-Dichlorobenzyl-N-[1-(P-Hydroxybenzyl)-2-(4-Hydroxypiperidino)Ethyl]-5-Isoquinolinesulfonamide], the EC50 in assay [1] is 5.4 µM. The compound also came in with an IC50 in assay [2] of 12 µM. On to `COc1ccc(C=CCNCCNS(=O)(=O)c2cccc3cnccc23)cc1` [Example 178, N-[2-(4-Methoxycinnamylamino)ethyl]-5-Isoquinolinesulfonamide], for which the EC50 in assay [1] was found to be 2.4 µM. Further, in assay [2], the IC50 was 50 µM. For `O=S(=O)(NCCNCC=Cc1cccc2ccccc12)c1cccc2cnccc12` [Example 184, N-{2-[3-(1-Naphthyl)-2-Propenylamino]ethyl}-5-Isoquinolinesulfonamide] the same measures were 2.8 µM and 12 µM.

Take `CN(c1ccccc1NCC=Cc1ccc(Cl)cc1)S(=O)(=O)c1cccc2cnccc12` [Example 143, N-[2-(4-Chlorocinnamylamino)Phenyl]-N-Methyl-5 -Isoquinolinesulfonamide]: the EC50 in assay [1] came out at 0.82 µM. Also, half-maximal inhibition in assay [2] (IC50) was put at 15 µM. Turning to `CN(C(Cc1ccc(N)cc1)C(=O)N1CCN(c2ccccc2)CC1)S(=O)(=O)c1cccc2cnccc12` (stereo not shown) [Example 13, 1-[P-Amino-N-(5-Isoquinolinesulfonyl)-N-Methylalanyl]-4-Phenylpiperazine], in assay [1], the EC50 turned out to be 1.2 µM. This compound also came in with an IC50 in assay [2] of 15 µM. Turning to `CN(C(Cc1ccc(O)cc1)CN1CCN(c2ccccc2)CC1)S(=O)(=O)c1cccc2cnccc12` (stereo not shown) [Example 36, N-[1-(P-Hydroxybenzyl)-2-(4-Phenylpiperazinyl)Ethyl]-N-Methyl-5-Isoquinolinesulfonamide], the EC50 in assay [1] worked out at 0.81 µM. The IC50 in assay [2] was 10.5 µM. For the compound `O=S(=O)(NCCNCC=Cc1ccc(F)cc1)c1cccc2cnccc12` [Example 175, N-[2-(4-Fluorocinnamylamino)ethyl]-5-Isoquinolinesulfonamide], in assay [1], the EC50 worked out at 2 µM. In assay [2], half-maximal inhibition (IC50) required 13 µM. On the same counts, the results for `CN(c1ccc(CC(C(=O)N2CCN(c3ccccc3)CC2)N(C)S(=O)(=O)c2cccc3cnccc23)cc1)S(=O)(=O)c1cccc2cnccc12` (stereo not shown) [Example 23, 1-{N-(5-Isoquinolinesulfonyl)-P-[N'-(5-Isoquinolinesulfonyl)-N'-Methylamino]-N-Methylphenylalanyl}-4-Phenylpiperazine] are 0.25 µM and 66 µM. On the same counts, the results for `O=S(=O)(NC(Cc1ccc(O)cc1)CN1CCCN(c2ccccc2)CC1)c1cccc2cnccc12` (stereo not shown) [Example 82, N-[1-(P-Hydroxybenzyl)-2-(4-Phenylhomopiperazinyl)Ethyl]-5-Isoquinolinesulfonamide] are 0.86 µM and 33 µM. `O=C(C(Cc1ccc([N+](=O)[O-])cc1)NS(=O)(=O)c1cccc2cnccc12)N1CCN(c2ccccc2)CC1` (stereo not shown) [Example 11, 1-[N-(5-Isoquinolinesulfonyl)-P-Nitrophenylalanyl]-4-Phenylpiperazine] returned an IC50 in assay [2] of 59 µM. Take `CN(C(Cc1ccc(O)cc1)CN1CCN(C(=O)c2ccccc2)CC1)S(=O)(=O)c1cccc2cnccc12` (stereo not shown) [Example 75, N-[2-(4-Benzoylpiperazinyl)-1-(P-Hydroxybenzyl)Ethyl]-N-Methyl-5-Isoquinolinesulfonamide]: the EC50 in assay [1] was 9.7 µM.
